In patent publication US11072636B2, “Peptide for inhibiting angiogenesis and use thereof” (CAREGEN CO., LTD., priority 2017, dated 2021):

Experiments:
AKT = assay: Inhibition of cell signaling pathway induced by VEGF: phosphorylation of AKT; assay type: cell-based; settings: vascular endothelial cells; FIGS. 5 and 6
Procedure: (§1) Further, in order to confirm the effect of inhibiting a cell signaling pathway induced by the VEGFs by the peptides of the present invention, in a specific exemplary embodiment of the present invention, a peptide having an amino acid sequence of SEQ ID NO: 1 or SEQ ID NO: 2 was treated to vascular endothelial cells and then changes in phosphorylation of a VEGF receptor (VEGFR2), ERK, AKT and p38 induced by the VEGF were confirmed.

VEGFR2 = VEGFR2 (Homo sapiens, UniProt P35968); assay: Competitive binding to the VEGF receptor; settings: FIGS. 11 to 14
Sequence of VEGFR2 (P35968 20-1356, species assumed): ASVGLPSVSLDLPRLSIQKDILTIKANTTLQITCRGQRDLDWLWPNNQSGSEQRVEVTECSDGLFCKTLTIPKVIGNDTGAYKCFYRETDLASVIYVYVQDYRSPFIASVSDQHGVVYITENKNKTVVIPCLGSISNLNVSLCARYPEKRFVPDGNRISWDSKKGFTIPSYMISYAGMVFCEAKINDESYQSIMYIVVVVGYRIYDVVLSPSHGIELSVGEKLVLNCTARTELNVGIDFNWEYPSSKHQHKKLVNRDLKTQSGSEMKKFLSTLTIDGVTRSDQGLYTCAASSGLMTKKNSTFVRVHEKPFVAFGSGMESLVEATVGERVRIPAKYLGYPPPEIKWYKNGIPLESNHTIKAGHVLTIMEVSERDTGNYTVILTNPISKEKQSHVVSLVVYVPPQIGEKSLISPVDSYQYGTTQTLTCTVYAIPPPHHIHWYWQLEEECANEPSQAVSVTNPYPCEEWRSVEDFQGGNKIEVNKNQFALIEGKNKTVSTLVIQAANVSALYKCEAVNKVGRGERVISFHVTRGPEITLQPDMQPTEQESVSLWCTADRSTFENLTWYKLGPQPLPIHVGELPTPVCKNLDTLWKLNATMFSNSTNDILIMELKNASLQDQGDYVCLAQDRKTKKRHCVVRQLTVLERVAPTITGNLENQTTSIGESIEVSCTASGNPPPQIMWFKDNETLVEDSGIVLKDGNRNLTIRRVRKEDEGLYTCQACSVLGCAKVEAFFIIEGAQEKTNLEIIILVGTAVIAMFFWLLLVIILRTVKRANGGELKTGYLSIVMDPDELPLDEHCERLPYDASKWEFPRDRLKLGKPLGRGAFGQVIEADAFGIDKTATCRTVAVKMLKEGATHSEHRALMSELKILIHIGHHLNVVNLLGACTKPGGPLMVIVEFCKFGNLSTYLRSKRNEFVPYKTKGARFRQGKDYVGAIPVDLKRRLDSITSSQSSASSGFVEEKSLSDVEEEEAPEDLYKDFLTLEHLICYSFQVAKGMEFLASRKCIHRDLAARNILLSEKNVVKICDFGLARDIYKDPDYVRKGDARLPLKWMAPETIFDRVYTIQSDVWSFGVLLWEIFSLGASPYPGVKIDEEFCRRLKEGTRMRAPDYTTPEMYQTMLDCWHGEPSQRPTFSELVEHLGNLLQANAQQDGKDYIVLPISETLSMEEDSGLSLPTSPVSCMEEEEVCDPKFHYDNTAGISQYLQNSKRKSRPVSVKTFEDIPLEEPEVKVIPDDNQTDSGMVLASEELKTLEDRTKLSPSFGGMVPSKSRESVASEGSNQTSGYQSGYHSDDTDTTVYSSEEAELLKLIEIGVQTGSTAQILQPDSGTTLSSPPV

BAX protein = assay: Expression level of pro-apoptotic BAX protein; assay type: cell-based; settings: vascular endothelial cells, expression reduced by the VEGF; FIGS. 9 and 10
HUVEC cells = assay: Inhibition of differentiation of vascular endothelial cells (tube formation assay); assay type: cell-based, human; settings: VEGF 20 ng/ml, serum-free, 1 day, FIGS. 3 and 4
Procedure: In order to confirm the effect of inhibiting the differentiation of vascular endothelial cells, the two peptides prepared in Preparation Example 1 were treated to the vascular endothelial cells, respectively, and then a tube formation assay was performed.
Specifically, HUVEC cells were inoculated in a 96-well plate at a density of 1.5×10^3 cells/well and incubated overnight, and then the medium was replaced with serum-free media, and then a VEGF (20 ng/ml) and the peptide of the present invention were treated by concentration and incubated for 1 day. However, 2 μm of sunitinib was used as a positive control group. After the incubation was completed, the measurement of tube formation was visually observed using an optical microscope, and the number of nodules was measured together.

[1] = system: human umbilical vein endothelial cells (HUVEC); assay: Inhibition of proliferation of vascular endothelial cells (MTT analysis); assay type: cell-based; settings: VEGF 20 ng/ml, 1% serum, 3 days, MTT absorbance 560 nm, FIGS. 1 and 2
Procedure: In order to confirm an effect of inhibiting the proliferation of vascular endothelial cells, the peptides prepared in Preparation Example 1 were treated to vascular endothelial cells, respectively, and then MTT analysis was performed.
Specifically, human umbilical vein endothelial cells (HUVEC) were inoculated in a 96-well plate at a density of 4×10^3 cells/well and then incubated overnight. Thereafter, after the medium was changed to a medium added with 1% serum, a VEGF (20 ng/ml) and the peptide of the present invention were treated for each concentration, respectively, and incubated for 3 days. However, 2 μm of sunitinib was used as a positive control group.
In addition, in order to confirm the effect of inhibiting the proliferation, 4 mg/ml of a thiozolyl blue tetrazolium bromide (MTT) solution was added to each well, formazan generated after reaction for 4 hours was dissolved by DMSO treatment, and then the absorbance was measured at a wavelength of 560 nm using a microplate reader. However, the measured absorbance values were shown by calculating relative rates based on an untreated control group.

VEGF receptor (VEGFR2) = assay: Inhibition of cell signaling pathway induced by VEGF: phosphorylation of VEGFR2; assay type: cell-based; settings: vascular endothelial cells; FIGS. 5 and 6
Procedure: as §1

eNOS = assay: Expression level of vascular endothelial cell migration marker eNOS; assay type: cell-based; settings: vascular endothelial cells; FIGS. 7 and 8
Source text: In addition, in order to confirm an effect of inhibiting the migration the vascular endothelial cells by the peptides of the present invention, in a specific exemplary embodiment of the present invention, a change in expression level of a vascular endothelial cell migration marker ‘eNOS’ was confirmed depending on treatment of the peptide having the amino acid sequence of SEQ ID NO: 1 or SEQ ID NO: 2 to the vascular endothelial cells.

p38 = assay: Inhibition of cell signaling pathway induced by VEGF: phosphorylation of p38; assay type: cell-based; settings: vascular endothelial cells; FIGS. 5 and 6
Procedure: as §1

ERK = assay: Inhibition of cell signaling pathway induced by VEGF: phosphorylation of ERK; assay type: cell-based; settings: vascular endothelial cells; FIGS. 5 and 6
Procedure: as §1

Sequence | phosphorylation of AKT induced by the VEGF (AKT) | binding to the VEGF receptor in competition with the VEGF (VEGFR2) | expression of the BAX protein (BAX protein) | differentiation (tube formation) of vascular endothelial cells (HUVEC cells) | proliferation of vascular endothelial cells increased by the VEGF [1] | phosphorylation of VEGFR2 induced by the VEGF (VEGF receptor (VEGFR2)) | eNOS expression increased by VEGF treatment (eNOS) | phosphorylation of p38 induced by the VEGF (p38) | phosphorylation of ERK induced by the VEGF (ERK)
IHGTYKELL (Peptide 2) [SEQ ID NO: 2] | significantly inhibited | bind to a VEGFR2 competitively with the VEGF | increased concentration-dependently | reduced | reduced | significantly inhibited | decrease concentration-dependently | significantly inhibited | significantly inhibited
NKNFGYDLYR (Peptide 1) [SEQ ID NO: 1] | significantly inhibited | bind to a VEGFR2 competitively with the VEGF | increased concentration-dependently | reduced | reduced | significantly inhibited | decrease concentration-dependently | significantly inhibited | significantly inhibited
